Results taken from patent US9409975B2, “Antibody binding microbial heparin binding motif to retard or prevent microbial biofilm formation on implanted medical devices” (priority 2012, dated 2016).

Tested on: C. albicans binding to heparin
Test: Inhibition of binding of CFSE-labeled C. albicans to plate-bound heparin (antibody and heparin inhibition studies)
Assay type: cell-based, Candida albicans
Method: A single colony of C. albicans was suspended in CSM to an OD600 of 0.1, diluted 1:200 into 25 ml CSM and grown at 30° C. overnight to mid-log phase (OD600 0.6-0.7). Cells were washed twice in sterile PBS and suspended in PBS at 2×10^7 CFU/ml. Carboxyfluorescein succinimidyl ester (Life Technologies) was dissolved in DMSO, diluted in PBS to 50 μM, and 0.5 ml CFSE mixed with 0.5 ml C. albicans suspension. The mixture was incubated for 20 min at room temperature on a rotator, washed once with FACS buffer, once with PBS, then suspended in 1 ml FACS buffer. Intensity of labeling was determined as the mean fluorescence intensity using a BD Accuri C6 cytometer (San Jose, Calif.) with excitation at 488 nm and a 533/30 emission filter. […] The following afternoon, C. albicans wild type strain and mutants were labeled with CFSE as follows: after growth of C. albicans to mid-log phase in CSM medium, organisms were washed two times in PBS and suspended in PBS at a concentration of 2×10^7/ml. 0.5 ml cells was mixed with 0.5 ml CFSE, covered in foil, and rotated on a mixer for 20 minutes at room temperature. […] At the end of the incubation period, wells were washed three times with PBS, and fluorescence in each well was measured (Beckman Coulter Multimode detector DTX880). […]

For heparin, the “binding of C. albicans to solid-phase heparin after preincubation with heparin, in words” value (2.5 units (12.5 μg) solid-phase heparin) was “significantly decreased” and the “decrease in binding of C. albicans to heparin after pre-incubation with soluble heparin” value (CFSE-labeled C. albicans pre-incubated with 100 units/ml heparin, p=0.022, data not shown) was 27%.
